Entries after “also recorded” stand apart in the source; their conditions may differ.
Assays:
[1] = pH response of fluorescence; format: physicochemical; settings: for pH-dependent fluorescence changes: holo and apo forms, physiological pH range (pH 4-8); for fluorescence changes of the Apo probe with pH: Apo (TPEN); for fluorescence changes of the Apo probe with pH / pH range in which fluorescence of the Zn-bound probe is stable: buffers at various pHs
Experimental: (§1) Aqueous solutions were prepared by using de-ionized water with resistivity […], obtained using a Milli-Q water purification system. In order to properly compare the photophysical properties of ZincBY-2, ZincBY-3, and ZincBY-4 to ZincBY-1, the photophysical properties of ZincBY-1 we remeasured. […] Stock solutions of ZincBY-1, ZincBY-2, ZincBY-3, and ZincBY-4 were prepared at concentrations of 5 mM and stored at −20° C. in aliquots that were used immediately after thawing for each experiment. Unless otherwise stated, all spectroscopic methods were conducted in aqueous buffer containing 50 mM HEPES (pH 7.2) and 0.1 M KNO3. UV-visible spectra were acquired on a PerkinElmer Lambda 650 UV/Vis spectrophotometer using quartz cuvettes from Starna (1 cm path length, 10 cm path length used in extinction coefficient and quantum yield determination). Fluorescence spectra were acquired using a PerkinElmer LS 55 fluorescence spectrophotometer. For measurements containing zinc, 99.0% ZnNO3 hexahydrate (final concentration 5 μM) was used. For experiments analyzing apo probes, N,N,N′,N′-Tetrakis(2-pyridylmethyl)ethylenediamine (TPEN) (final concentration 5 μM) was added to solution. Quantum Yield and Extinction Coefficient Determination. Quantum yields for apo and holo ZincBY-1, ZincBY-2, ZincBY-3, and ZincBY-4 were determined by plotting absorbance vs. fluorescence intensity of solutions containing ZincBY-1, ZincBY-2, ZincBY-3, or ZincBY-4 at probe concentrations ranging from 50-250 nM. Serial dilution was used to make solutions at different concentrations. Fluorescein dissolved in 0.1 N NaOH was used as the quantum yield standard, using a literature-determined quantum yield of 0.95.^3 For all fluorophore solutions, fluorescence excitation was set at 490 nm and fluorescence emission was integrated from 510 nm to 650 nm. Zinc Dissociation Constant. Fluorescence spectra were recorded using zinc probes (ZincBY-1, ZincBY-2, ZincBY-3, or ZincBY-4; 200 nM) and ZnSO4 (various concentrations). The solutions were equilibrated in the dark for 1 h prior to measurement. The concentration of ZnSO4 was varied from 1 μM to 9 mM in buffer solution (50 mM HEPES and 0.1 M KNO3, and pH 7.2) containing 10 mM EGTA. Free Zn^2+ was calculated according to a previously reported method (Ref. B4; incorporated by reference in its entirety). Data was fit to the following one-site binding equation: F=(FminKd+Fmax[Zn^2+])/(Kd+[Zn^2+]) pH Response. The fluorescence spectra of zinc probes (ZincBY-2, ZincBY-3, or ZincBY-4; 200 nM) wasere measured at various pH values (4.5-11). The following buffers were used at 50 mM concentration with 0.1 M KNO3: NaOAc/AcOH (pH 4.0-4.5), MES (pH 5.0-6.5), HEPES (pH 7.0-8.0), CHES (pH 8.5-9.5), CAPS (pH 10.0-11.0). Metal Ion Response. The fluorescence spectra of zinc probes (ZincBY-2, ZincBY-3, or ZincBY-4; 200 nM) were measured in the presence an excess of metal ion including 1 mM KNO3, 1 mM NaNO3, 1 mM CaSO4, 1 mM MgSO4, 15 μM MnSO4, 15 μM (NH4)2Fe(SO4)2, 15 μM NH4Fe(SO4)2, 15 μM CoSO4, 15 μM NiSO4, 15 μM CuSO4, 15 μM [Cu(CH3CN)4]PF6, 15 μM CdSO4, 15 μM Hg(NO3)2, 15 μM Pb(NO3)2, or 15 μM ZnSO4. The fluorescence spectra were compared to that of ZincBY-2 (200 nM), ZincBY-3 (200 nM), or ZincBY-4 (200 nM) in the presence of 10 μM TPEN. Determination of octanol-water partition coefficients (log P). A log P value for each probe was determined by agitating nanomolar solutions of each probe in a 1:1 mixture of HEPES buffer and 1-octanol. Solutions were allowed to settle for 1 h and then the fluorescence intensity of each phase was measured. Standard curves of the fluorescence of known concentrations of probes in both solutions were used to determine concentrations.

[2] = Metal ion response / selectivity of fluorescence; settings: for metal ions that inhibit the zinc response: other metal ions in the presence of excess zinc; for fluorescence response to toxic metals (Cd, Hg, Pb): relative fluorescence intensity; for metal ions to which the probe does not respond: relative fluorescence intensity in the presence of other metal ions
Experimental: as §1

COc1ccc2n1[B-](F)(F)[N+]1=C(N(CCN(Cc3ccccn3)Cc3ccccn3)Cc3ccccn3)C=CC1=C2c1c(C)cc(C)cc1C [ZincBY-1, reference compound]
pH-dependent fluorescence changes [1]: neither the holo or apo forms of ZincBY-1 and ZincBY-4 show significant changes in fluorescence | preference for Zn(II) over other biologically relevant metal ions [2]: responds preferentially to Zn(II) relative to other biologically relevant metal ions

Cc1cc(C)c(C2=C3C=CC(OCCN=[N+]=[N-])=[N+]3[B-](F)(F)n3c2ccc3N(CCN(Cc2ccccn2)Cc2ccccn2)Cc2ccccn2)c(C)c1 [ZincBY-2, N1-(7-(2-azidoethoxy)-5,5-difluoro-10-mesityl-5H-4λ4,5λ4-dipyrrolo[1,2-c:2′,1′-f][1,3,2]diazaborinin-3-yl)-N1,N2,N2-tris(pyridin-2-ylmethyl)ethane-1,2-diamine]
fluorescence changes of the Apo probe with pH [1]: largely unaffected by changes in pH | pH range in which fluorescence of the Zn-bound probe is stable [1]: 4.5-8.0 pH | metal ions that inhibit the zinc response [2]: does not fluoresce in the presence of Cu(I) and Cu(II), and these ions inhibit the zinc response | fluorescence response to toxic metals (Cd, Hg, Pb) [2]: exhibits an increase in fluorescence in response to toxic metals Cd and Hg, but does not respond to Pb | metal ions to which the probe does not respond [2]: does not respond to changes in K, Na, Ca, Mg, Mn, Fe, Co, or Ni concentration

Cc1cc(C)c(C2=C3C=CC(OCCN)=[N+]3[B-](F)(F)n3c2ccc3N(CCN(Cc2ccccn2)Cc2ccccn2)Cc2ccccn2)c(C)c1 [ZincBY-3, N1-(7-(2-aminoethoxy)-5,5-difluoro-10-mesityl-5H-4λ4,5λ4-dipyrrolo[1,2-c:2′,1′-f][1,3,2]diazaborinin-3-yl)-N1,N2,N2-tris(pyridin-2-ylmethyl)ethane-1,2-diamine]
fluorescence changes of the Apo probe with pH [1]: largely unaffected by changes in pH | pH range in which fluorescence of the Zn-bound probe is stable [1]: 4-8 pH | metal ions that inhibit the zinc response [2]: does not fluoresce in the presence of Cu(I) or Cu(II), and these ions inhibit the zinc response; also recorded: Fe(II) and Fe(III) also seem to inhibit a zinc response | fluorescence response to toxic metals (Cd, Hg, Pb) [2]: exhibits a fluorescence response to the toxic metals Cd, Hg, and Pb | metal ions to which the probe does not respond [2]: does not respond to changes in K, Na, Ca, Mg, Mn, Co, or Ni concentration

CC(=O)NCCOc1ccc2n1[B-](F)(F)[N+]1=C(N(CCN(Cc3ccccn3)Cc3ccccn3)Cc3ccccn3)C=CC1=C2c1c(C)cc(C)cc1C [ZincBY-4, N-(2-((7-((2-(bis(pyridin-2-ylmethyl)amino)ethyl)(pyridin-2-ylmethyl)amino)-5,5-difluoro-10-mesityl-5H-5λ4,6λ4-dipyrrolo[1,2-c:2′,1′-f][1,3,2]diazaborinin-3-yl)oxy)ethyl)acetamide]
fluorescence changes of the Apo probe with pH [1]: largely unaffected by changes in pH | pH range in which fluorescence of the Zn-bound probe is stable [1]: 4-8 pH | pH-dependent fluorescence changes [1]: neither the holo or apo forms of ZincBY-1 and ZincBY-4 show significant changes in fluorescence | preference for Zn(II) over other biologically relevant metal ions [2]: responds preferentially to Zn(II) relative to other biologically relevant metal ions | metal ions that inhibit the zinc response [2]: does not fluoresce in the presence of Cu(II) or Hg, and these ions inhibit the zinc response; also recorded: Fe(II), Fe(III), and Co also seem to inhibit the zinc response | fluorescence response to toxic metals (Cd, Hg, Pb) [2]: exhibits a fluorescence response to the toxic metals Cd, and Pb | metal ions to which the probe does not respond [2]: does not respond to changes in K, Na, Ca, Mg, Mn, Ni, or Cu(I) concentration

From patent US11953435B2, “Zinc-responsive fluorophores” (Northwestern University, priority 2019, dated 2024)
